From patent publication US20150322082A1, “NOVEL COMPOUNDS AS DIACYLGLYCEROL ACYLTRANSFERASE INHIBITORS” (GLAXOSMITHKLINE LLC, priority 2012, published 2015)
Where two headings read alike, the source gives them in different places.

Tests used:
[1] = Pharmacokinetic assay in rats (Rat IV and PO PK); format: in vivo; conditions: male, Crl:CD (SD), plasma; for bioavailability: 2 mg/kg, absolute oral bioavailability from oral and intravenous AUC0-inf, normalized for dose, read-out: Rat % F
Experimental: Pharmacokinetic Assay in Rats (Rat IV and PO PK)
Male Crl:CD (SD) rats were housed individually in cages with clean bedding in a controlled environment (22 to 25° C. temperature, humidity of 30-70% RH, and a 12 hour light/12 hour dark cycle). Certified rodent diet was provided ad libitum to the rats. Rats were fasted overnight 14-16 hours prior to the dosing on each study day and fed approximately 4 hours post dose (following collection of the 4 hour blood sample). Water was available ad libitum. Normal healthy rats certified by the attending veterinarian were selected and acclimatized for a minimum of three days prior to initiation of the study. Rats were randomized according to the body weight and were identified with body markings.
Intravenous formulation of 1 mg/mL concentration was prepared in DMA (N,N-Dimethylacetamide):TEG (Tetraethylene glycol): Water for Injection (20:40:40) freshly on study day. Animals were dosed through tail vein to achieve a target dose of 1 mg/kg. Oral suspension at a target concentration of 2 mg/mL was prepared freshly in Tween 80 (2%) and 0.5% MC (Methylcellulose) (2:98) on the study day. Animals in the intravenous dosing group were dosed through tail vein to achieve a target dose of 1 mg/kg, and the animals in oral dosing group were dosed orally by an oral gavage needle to achieve a target dose of 2 mg/kg. The actual dose volume was based on the body weight obtained on the study day. On the study day, blood samples (approx. 300 μL/time point) were collected at 0.083, 0.25, 0.5, 1, 2, 4, 8 and 24 hours after intravenous bolus dose, and 0.25, 0.5, 1, 2, 4, 8 and 24 hours after dosing of oral gavage and transferred to a pre-labeled K2EDTA coated tubes. Blood volume was replaced with administration of equal volume of saline through the jugular vein. After collection of blood samples at each time point, the blood samples were stored immediately on ice, in chilled Cryoracks and centrifuged at 2320 g at 4° C. for 15 minutes. The plasma was separated and transferred to pre-labeled micro-centrifuge tubes and promptly frozen at −80+10° C. until bioanalysis.
The plasma concentrations were determined by using a fit for purpose analytical method based on protein precipitation, followed by LC-MS/MS analysis. Analyst Version 1.5.1 software was used to acquire and quantify data. Pharmacokinetic analysis of plasma concentration-time data was performed by a non-compartmental method using Pheonix WinNonLin™ (WLN) Version 6.3.
The area under the plasma concentration-time curve (AUC) from the time of dosing to the last quantifiable time point (AUC0-1) was determined by WLN using linear logarithmic trapezoidal rule. Terminal half life (T1/2) was determined by WLN using linear logarithmic trapezoidal rule for plasma concentrations following intravenous administration. The Absolute oral bioavailability (% F) was calculated by mathematical comparison of oral and intravenous AUC0-inf, normalized for dose.

[2] = molecular target: T1, Human DGAT1 (Homo sapiens, UniProt O75907); assay: Human DGAT1 lipid extraction (LE) assay, inhibition of triacylglycerol product formation; format: biochemical; conditions: human DGAT1 microsomes from Sf9 cells, read-out: hDGAT LE IC50
T1 construct: made in house; host or cells: Sf9 insect cells (baculovirus); microsomes
T1 sequence (O75907 1-488): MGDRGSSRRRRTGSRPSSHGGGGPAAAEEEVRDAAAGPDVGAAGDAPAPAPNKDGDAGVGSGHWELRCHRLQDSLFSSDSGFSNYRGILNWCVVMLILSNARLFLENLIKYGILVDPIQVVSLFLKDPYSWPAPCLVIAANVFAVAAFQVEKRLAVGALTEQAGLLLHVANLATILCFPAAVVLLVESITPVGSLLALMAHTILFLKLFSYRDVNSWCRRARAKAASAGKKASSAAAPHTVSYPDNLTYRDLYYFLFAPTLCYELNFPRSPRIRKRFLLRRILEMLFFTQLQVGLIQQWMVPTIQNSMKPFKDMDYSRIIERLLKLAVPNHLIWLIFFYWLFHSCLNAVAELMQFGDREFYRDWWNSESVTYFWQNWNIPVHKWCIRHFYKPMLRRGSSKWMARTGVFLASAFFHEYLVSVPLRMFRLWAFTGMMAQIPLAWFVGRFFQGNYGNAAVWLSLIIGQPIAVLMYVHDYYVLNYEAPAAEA
Experimental: Human DGAT1 was expressed in Sf9 insect cells using a baculovirus expression system. Microsomes were prepared and used as enzyme for in vitro inhibition testing in either of two formats measuring production of coenzyme A or tridecanoylglycerol product, respectively. All steps were performed at 21-23° C. All data for DGAT1 inhibition by test compounds were collected under conditions where product formation was linear with reaction time.
Some assays were performed with inclusion of didecanoylglycerol in the pre-reaction incubation of test compounds and enzyme. […] Extraction of tridecanoylglycerol product was accomplished via addition of 30 uL Microscint-E (Perkin Elmer) and 2 hours of incubation (sealed). Plates were read on a Microbeta Microplate reader. Inhibition was normalized to controls containing DMSO or 10 uM {4-[4-(4-amino-7,7-dimethyl-7H-pyrimido[4,5-b][1,4]oxazin-6-yl)phenyl]cyclohexyl}acetic acid. IC50s were fitted using GraphPad Prism to a sigmoidal dose response.

[3] = intravenous (tail vein), target dose 1 mg/kg, read-out: Rat IV AUC
[4] = oral gavage, target dose 2 mg/kg, read-out: Rat PO AUC

Row | AUC [1, 3] [ng·h/mL] | AUC [1, 4] [ng·h/mL] | bioavailability [1] [%] | IC50 [2] [µM] | Compound
1 | 3780 | 1780 | 12.5 | – | Nc1ncnc2c1C(=O)N(c1ccc3c(ccn3-c3ccc(C(F)(F)F)cn3)c1)CCO2 [WO12/162129, Ex 88, 4-amino-6-(1-(5-(trifluoromethyl)pyridin-2-yl)-1H-indol-5-yl)-7,8-dihydropyrimido[5,4-f][1,4]oxazepin-5(6H)-one]
2 | 2140 | 4020 | 89 | 0.029 | CC(C)(O)c1ccc(-n2ccc3cc(N4CCOc5ncnc(N)c5C4=O)ccc32)cn1 [Example 38, 4-Amino-6-(1-(6-(2-hydroxypropan-2-yl)pyridin-3-yl)-1H-indol-5-yl)-7,8-dihydropyrimido[5,4-f][1,4]oxazepin-5(6H)-one]
3 | – | – | – | 0.0238 | CCOc1ncc(-n2ccc3cc(N4CCOc5ncnc(N)c5C4=O)ccc32)cn1 [Example 41]
4 | 975 | 2490 | 65.6 | – | Cc1ccc(-n2ccc3cc(N4CCOc5ncnc(N)c5C4=O)ccc32)cn1 [WO12/162129, Ex 102, 4-amino-6-(1-(6-methylpyridin-3-yl)-1H-indol-5-yl)-7,8-dihydropyrimido[5,4-f][1,4]oxazepin-5(6H)-one]
5 | 3380 | 3860 | 30.4 | – | Nc1ncnc2c1C(=O)N(c1ccc3c(ccn3-c3ccc(C(F)(F)F)nc3)c1)CCO2 [WO12/162129, Ex 83, 4-amino-6-(1-(6-(trifluoromethyl)pyridin-3-yl)-1H-indol-5-yl)-7,8-dihydropyrimido[5,4-f][1,4]oxazepin-5(6H)-one]

The next lines start with the molecule.

Row | Compound | AUC [1, 3] [ng·h/mL] | AUC [1, 4] [ng·h/mL] | bioavailability [1] [%] | IC50 [2] [µM]
6 | Cc1cnc(-n2ccc3cc(N4CCOc5ncnc(N)c5C4=O)cc(C4CC4)c32)nc1 [Example 37, 4-Amino-6-(7-cyclopropyl-1-(5-methylpyrimidin-2-yl)-1H-indol-5-yl)-7,8-dihydropyrimido[5,4-f][1,4]oxazepin-5(6H)-one] | 11700 | 11600 | 54.6 | 0.0117
7 | COC(C)(C)Cn1ccc2cc(N3CCOc4ncnc(N)c4C3=O)ccc21 [Example 39, 4-amino-6-(1-(2-methoxy-2-methylpropyl)-1H-indol-5-yl)-7,8-dihydropyrimido[5,4-f][1,4]oxazepin-5(6H)-one] | – | – | – | 0.0423
8 | CC(C)(O)Cn1ccc2cc(N3CCOc4ncnc(N)c4C3=O)cc(C3CC3)c21 [Example 40, 4-amino-6-(7-cyclopropyl-1-(2-hydroxy-2-methylpropyl)-1H-indol-5-yl)-7,8-dihydropyrimido[5,4-f][1,4]oxazepin-5(6H)-one] | – | – | – | 0.0075
